This note sets out measurements from US7217559B2, “Gene encoding cyclododecanone monooxygenase” (National Research Council of Canada, priority 2002, dated 2007).

Series [1] has as its system cyclododecanone monooxygenase (CDMO). Put plainly: Substrate specificity of cloned CDMO (relative activity towards cyclic ketones). To be noted: ketone as substrate, cyclododecanone = 100%. The series is classed as biochemical, Pseudomonas putida strain HI-70.
Series [2] shares this test system. Put plainly: Comparison of CDMO activity in E. coli and native HI-70. The series is classed as biochemical, Pseudomonas putida strain HI-70.

For `O=C1CCCCCCCCCC1` [cycloundecanone], in series [1], the relative activity was 56%. With `O=C1CCCCCCCCC1` [cyclodecanone], the relative activity in series [1] was found to be 10%. On the same count and under the same terms, as for `O=C1CCCCCCCCCCCCCC1` [cyclopentadecanone], the figure is 144%; as for `O=C1CCCCCCCCCCCC1` [cyclotridecanone], 138%. The same measure, in the same setting: as for `O=C1CCCCCCCCCCC1` [cyclododecanone], the figure is 100%.

B1: CDMO: cyclododecanone monooxygenase of Pseudomonas putida HI-70, encoded by cdnB, amino acid sequence SEQ ID NO:8 (protein)
chain: MSQLIQEPAEAGVTSQKVSFDHVALREKYRQERDKRLRQDGQEQYLEVAVTCDEYLKDPYADPIVRDPVVRETDVFIIGGGFGGLLAAVRLQQAGVSDYVMVERAGDYGGTWYWNRYPGAQCDIESYVYMPLLEEMGYIPTEKYAFGTEILEYSRSIGRKFGLYERTYFQTEVKDLSWDDEAARWRITTDRGDKFSARFVCMSTGPLQRPKLPGIPGITSFKGHSFHTSRWDYSYTGGDQTGNLEGLKDKRVAIIGTGATSIQAVPHLAAYAQELYVIQRTPISVGFRGNKPTDPEWAKSLQPGWQQARMDNFNAITHGMPVDVDLVQDSWTKIFGEIGVFLGSDGSRAQMVDFQLMEQIRARVDQEVKDPATAESLKPYYNIMCKRPGFHDSYLPSFNKPNVTLVDTQGAGVERITEKGLVVNGREYEVDCLIYATGFEYQTKLSRRNGYEIHGRNGQPLSDKWKDGLSTLWGYHIRDFPNCFILGNGQSAVTPNFTHMLNEAGKHVAYVVKHCLDERVDVFEPTAEAEQAWVDHVMSFAGIKQQYDRECTPSYYNNEGQVNDVALTRTTSTRAVRSLINILREWREKGDFAQFQQRKR
modifications: Primer
Take B1: the CDMO activity in series [2] (from E. coli DH5α(pSD-cdnB)) is given as 0.48 U/mg of protein; in series [2] (original P. putida strain HI-70), 0.14 U/mg of protein.
